From patent publication US20110112099A1, “THERAPEUTIC AGENT FOR CANCER RESISTANT TO PROTEASE INHIBITOR” (KYOWA HAKKO KIRIN CO., LTD., priority 2007, published 2011)
Where two headings read alike, the source gives them in different places. Where a SMILES comes first, the peptide text is derived from it. The star is where a group is joined. Cbz = O=C(OCc1ccccc1)*

Assays:
[1] = system: KMS-11 cells; test: Test for the growth inhibition to KMS-11 (WST-1, 72 hours); format: cell-based, human; settings: read-out: IC50 KMS-11 (growth-inhibitory effect, viable cell number)
Protocol: (§1) A cell solution (90 μL/well) of KMS-11 or KMS-11/Bor suspended in an RPMI1640 medium containing 10% FCS (hereinafter referred to as culture medium) at a concentration of 5×10^4 cells/mL was inoculated in a 96-well microplate (Nunc), and as for a blank the culture medium (100 μL/well each) was added, and the plate was incubated in a 5% carbon dioxide incubator for 5 hours.
(§2) The test compound was serially diluted to yield a diluted solution having a concentration of 10-fold of the final concentration, and the solution (10 μL/well each) was added (n=3 for one concentration). As for a control, the culture medium containing no test compound (10 μL/well each) was added. The tests for the control and the blank were performed in n=8. The incubation was carried out for 72 hours after addition of the test compound, and the number of viable cells was counted with a cell proliferation reagent WST-1 (WST-1 reagent; Roche Diagnostics). The WST-1 reagent (10 μL/well) was added to each plate. The plate was incubated in a carbon dioxide incubator for 2 hours, then stirred on a plate mixer, and the absorbance was measured at 450 nm and 655 nm using a microplate spectrophotometer (Molecular Device; SPECTRAmax 340PC-384). For each well, the differential absorbance was calculated by subtracting the absorbance at 655 nm from that at 450 nm. Further, the absorbance corresponding to the viable cell number was calculated by subtracting the differential absorbance of the blank from the above differential absorbance.
(§3) The followings describe the calculation method for IC50. The absorbance corresponding to the viable cell number obtained in the wells untreated with the test compound was regarded as 100%, and the absorbance obtained in the wells treated with the test compound was represented by the relative value (% control). From these values, the IC50 of viable cell number (the concentration at which the viable cell number is reduced to 50% of the control) was calculated. FIGS. 1 to 4 show the % control at the respective concentration of the test compound after treatment with the test compound. […]

[2] = system: KMS-11/Bor (bortezomib-resistant KMS-11 cells); test: Test for the growth inhibition to KMS-11/Bor (WST-1, 72 hours); format: cell-based, human; settings: for IC50: KMS-11/Bor cells, 72 hours, WST-1, read-out: IC50 KMS-11/Bor (growth-inhibitory effect, viable cell number); for IC50 ratio (IC50 of KMS-11/Bor divided by IC50 of KMS-11): degree of bortezomib resistance, KMS-11/Bor vs KMS-11
Protocol: KMS-11 cells were suspended in an RPMI1640 medium containing 10% fetal calf serum (FCS) at a concentration of 5×10^4 cells/mL, and incubated at 37° C. in a 5% carbon dioxide incubator. Then, bortezomib was added thereto to adjust the final concentration of 5 nmol/L, and the incubation was continued. After confirmation of the survival and satisfactory growth of the cells, the cells were suspended at a concentration of 5×10^4 cells/mL, then bortezomib was added at a concentration of 10 nmol/L, and the incubation was continued. Then, after confirmation of the survival and satisfactory growth of the cells, the concentration of bortezomib was increased step by step, and the culture and subculture were repeated to create the bortezomib-resistant KMS-11 cells being capable of growing at a concentration of 100 nmol/L of bortezomib. Hereinafter, thus prepared cell line was referred to as “KMS-11/Bor”.
as §1, §2
(§4) The followings describe the calculation method for IC50. The absorbance corresponding to the viable cell number obtained in the wells untreated with the test compound was regarded as 100%, and the absorbance obtained in the wells treated with the test compound was represented by the relative value (% control). From these values, the IC50 of viable cell number (the concentration at which the viable cell number is reduced to 50% of the control) was calculated. FIGS. 1 to 4 show the % control at the respective concentration of the test compound after treatment with the test compound. […] In addition, values in which IC50 of KMS-11/Bor is divided by IC50 of KMS-11 (IC50 ratio) is shown in Table 3 as the degree of bortezomib resistance in the respective test compounds.

[3] = system: OPM-2 cells; test: Test for the growth inhibition to OPM-2 (WST-1, 72 hours); format: cell-based, human; settings: read-out: IC50 OPM-2 (growth-inhibitory effect, viable cell number)
Protocol: as §1, with “OPM-2” for “KMS-11”, “OPM-2/Bor” for “KMS-11/Bor”
as §2, with “concentration” for “concentration,”
as §3, with “FIGS. 5” for “FIGS. 1”, “to 8” for “to 4”

[4] = system: OPM-2/Bor (bortezomib-resistant OPM-2 cells); test: Test for the growth inhibition to OPM-2/Bor (WST-1, 72 hours); format: cell-based, human; settings: for IC50: OPM-2/Bor cells, 72 hours, WST-1, read-out: IC50 OPM/Bor (growth-inhibitory effect, viable cell number); for IC50 ratio (IC50 of OPM-2/Bor divided by IC50 of OPM-2): degree of bortezomib resistance, OPM-2/Bor vs OPM-2
Protocol: OPM-2 cells were suspended in an RPMI1640 medium containing 10% fetal calf serum (FCS) at a concentration of 5×10^4 cells/mL, and incubated at 37° C. in a 5% carbon dioxide incubator. Then, bortezomib was added thereto to adjust the final concentration of 2.5 nmol/L, and the incubation was continued. After confirmation of the survival and satisfactory growth of the cells, bortezomib was added at a concentration of 3.75 nmol/L, and the incubation was continued. Then, after confirmation of the survival and satisfactory growth of the cells, the concentration of bortezomib was increased step by step, and the culture and subculture were repeated to create the bortezomib-resistant OPM-2 cells being capable of growing at a concentration of 15 nmol/L of bortezomib. Hereinafter, thus prepared cell line was referred to as “OPM-2/Bor”.
as §1, with “OPM-2” for “KMS-11”, “OPM-2/Bor” for “KMS-11/Bor”
as §2, with “concentration” for “concentration,”
as §4, with “FIGS. 5” for “FIGS. 1”, “to 8” for “to 4”, “IC50 ratio for OPM-2/Bor was” for “IC50 of KMS-11/Bor is”, “of OPM-2” for “of KMS-11”, “Table 4” for “Table 3”

[5] = system: refractory/recurrent multiple myeloma; settings: phase I, 17-AAG alone; cited from earlier work
[6] = system: refractory/recurrent multiple myeloma; settings: phase I, IPI-504 alone; cited from earlier work
[7] = system: OPM-2/Bor cells; test: Anti-tumor effect in a mouse model to which the OPM-2/Bor cells have been implanted; format: in vivo; settings: for T/C value (V/V0 of group divided by V/V0 of negative control group): Day 14, OPM-2/Bor implanted scid mice
Protocol: The day before the implantation of cancer cells, an anti-asialo GM1 antibody (0.3 mg/mouse each) was administered intraperitoneally to Fox C. B-17/Icr-scidJcl mice (CLEA Japan, Inc.). The OPM-2/Bor cells were grown by incubation in an RPMI1640 medium containing 10% FCS at 37° C. in a 5% carbon dioxide incubator, and implanted into the ventral subcutaneous portion at a dose of 1×10^7 cells/mouse. Eighteen days after implantation, the major axis and minor axis of the tumor growing in the subcutaneous portion were measured with a vernier micrometer, and the tumor volume was calculated according to the following equation.
At the same time, the body weight of each mouse was measured, and the mice were divided into the following administration groups consisting of 5 mice per group so that the average tumor volume and the average body weight became uniform; and this day was regarded as the test-starting day 0, on which the administration was started.
Compound 22 was dissolved in physiological saline (Otsuka Pharmaceutical Co., Ltd.) at a concentration of 10 or 5 mg/mL, and administered intravenously in the tail vein at a dose of 0.01 mL/g body weight of mouse, respectively, (corresponding to 100 mg/kg and 50 mg/kg) twice a day continuously up to the 4th day from the starting day 0.
Bortezomib was dissolved in physiological saline at a concentration of 0.1 or 0.05 mg/mL, and administered intravenously in the tail vein at a dose of 0.01 mL/g body weight of mouse, respectively, (corresponding to […] and 0.5 mg/kg) once a day on the starting day 0, […].
A. Negative control group (Control): No administration of the test compound B. Bortezomib administered group: 1 mg/kg (administered once a day on the days 0, 3, 7, and 10) C. […]
Following the day 0, the tumor volume was measured twice a week. The anti-tumor effect was determined by calculating the average value of the tumor volume in each group and comparing a change of the tumor volume (V/V0), wherein the tumor volume on the day 0 was defined as V0.

[8] = system: refractory/recurrent multiple myeloma; settings: clinical, New England Journal of Medicine 348, 2609; cited from earlier work

Compound | IC50 ([1]; Homo sapiens) | IC50 ([2]; Homo sapiens) | IC50 ratio (IC50 of KMS-11/Bor divided by IC50 of KMS-11) [2] | IC50 ([3]; Homo sapiens) | IC50 ([4]; Homo sapiens) | IC50 ratio (IC50 of OPM-2/Bor divided by IC50 of OPM-2) [4] | IC50 [1] | IC50 [2] | IC50 [3] | IC50 [4] | Patients with stable disease (SD) or more effect [5] | Cases with SD as anti-tumor effect [6] | T/C value (V/V0 of group divided by V/V0 of negative control group) ([7]; B group: 1 mg/kg intravenously once a day on days 0, 3, 7, 10) | T/C value (V/V0 of group divided by V/V0 of negative control group) ([7]; C group: 0.5 mg/kg intravenously once a day on days 0, 3, 7, 10) | Anti-tumor effect, change of tumor volume (V/V0), FIG. 9 ([7]; OPM-2/Bor implanted mice, Compound 22 100 and 50 mg/kg, bortezomib 1 and 0.5 mg/kg) | Share of refractory/recurrent multiple myeloma in which the drug is effective [8] | Share of refractory/recurrent multiple myeloma in which the drug is ineffective [8]
CC(C)C[C@@H](C=O)NC(=O)[C@H](CC(C)C)NC(=O)[C@H](CC(C)C)NC(=O)OCc1ccccc1 [MG-132] (Cbz-Leu-Leu-Leu-aldehyde) | 260 nM | 2000 nM | 7.7 | 94 nM | 1500 nM | 16 |  |  |  |  |  |  |  |  |  |  | 
C=CCNC1=C2C[C@@H](C)C[C@H](OC)[C@H](O)[C@@H](C)/C=C(\C)[C@H](OC(N)=O)[C@@H](OC)/C=C\C=C(/C)C(=O)NC(=CC1=O)C2=O [Compound 17-AAG, 17-allylamino-17-demethoxygeldanamycin] |  |  | 0.76 |  |  | 1.1 | 82 nM | 62 nM | 310 nM | 350 nM | 9 out of the 22 |  |  |  |  |  | 
C=CCNc1c(O)cc2c(O)c1C[C@@H](C)C[C@H](OC)[C@H](O)[C@@H](C)/C=C(\C)[C@H](OC(N)=O)[C@@H](OC)/C=C\C=C(/C)C(=O)N2 [IPI-504] |  |  |  |  |  |  |  |  |  |  |  | 3 out of the 17 |  |  |  |  | 
CC(C)C[C@H](NC(=O)[C@H](Cc1ccccc1)NC(=O)c1cnccn1)B(O)O [Bortezomib, bortezomib] | 8.2 nM | 170 nM | 21 | 3.9 nM | 110 nM | 28 |  |  |  |  |  |  | 0.85 | 1.0 | did not show a remarkable growth inhibitory effect | approximately 35% | approximately 40%
